Measurements: paper PMC3658274, “Characterization of drug-induced transcriptional modules: towards drug repositioning and functional understanding” (Molecular Systems Biology, 2013)
Values belong to the compound of their own block, whether it stands above or below them.

Tests used:
HL60 = assay: cells; design: Cell viability, Alamar Blue fluorescence; settings: Homo sapiens, HL-60, 72 h
Method: (§1) HL60 (CPQ-054) was cultured as suspension cells in RPMI-1640 containing 10% FCS and penicillin/streptomycin. MCF7 (CPQ-072) cells were cultured as adherent cells in DMEM containing 10% FCS and penicillin/streptomycin. Cells were cultured at 37 °C in an atmosphere of 5% (HL60) or 10% (MCF7) CO2. For the assays, cells (5000 cells/well) were seeded in 150 μl medium on a 96-well cell culture plate and incubated overnight at 37 °C. The next day, cells were treated with different concentrations of selected chemicals from CMap. After 72 h, the viability of treated cells was measured after incubation for 4 h with the indicator dye Alamar Blue and fluorescence measurement at 590 nm. The single concentration of mephentermine (50 μM) was tested in quadruplicates. The IC50 curves for the predicted compounds (sulconazole, vinburnine) and their corresponding negative controls (butoconazole, moxisylyte hydrochloride) were prepared in eight semilog dilutions starting at 1E-5M and tested in duplicates. The reference compound staurosporine was prepared in eight decalog dilutions starting at 1E-5M. Standard solvent controls were performed using 0.1% DMSO. Treatment of cells with 0.1% DMSO and 1E-5M staurosporine served as high control (100% viability) and low control (0% viability), respectively. Raw data were converted into percent viability relative to high controls (solvent 0.1% DMSO) and low controls (1E-05M staurosporine), which were set to 100 and 0%, respectively. IC50 values were calculated using R package ‘drc’ ([Ritz and Streibig, 2005]) by fitting dose response data to a two-parametric log-logistic function with 0% growth as bottom constraint and 100% growth as top constraint. For cell cycle analysis, HL60 cells (ATCC CCL-240) were grown for 6 h with an initial concentration of 0.4 Mio/ml in 3 ml of medium before sulconazole (25 μM) and vinburnine (25 μM) (nocodazole, 200ng/ml as reference) were added. For three time points (24, 48 and 72 h), (un)treated cells were collected, fixed in 80% methanol for 24 h and further rehydrated in PBS/1%FCS at room temperature for 30 min before RNAse A (100 μg/ml) and PI (50 μg/ml) treatment. FACS (FACSCalibur, BD Biosciences) was empl

MCF7 = assay: cells; design: Cell viability, Alamar Blue fluorescence; settings: Homo sapiens, MCF7, 72 h
Method: as §1

[1] = molecular target: T1, estrogen receptor-α (ERα) (Homo sapiens, UniProt P03372); assay: cell-based; design: Cerep cellular ER alpha antagonist effect assay (ref. 3495); settings: read-out: Antag./Inhibitor
T1 construct: gene ESR1
T1 sequence (P03372 1-595): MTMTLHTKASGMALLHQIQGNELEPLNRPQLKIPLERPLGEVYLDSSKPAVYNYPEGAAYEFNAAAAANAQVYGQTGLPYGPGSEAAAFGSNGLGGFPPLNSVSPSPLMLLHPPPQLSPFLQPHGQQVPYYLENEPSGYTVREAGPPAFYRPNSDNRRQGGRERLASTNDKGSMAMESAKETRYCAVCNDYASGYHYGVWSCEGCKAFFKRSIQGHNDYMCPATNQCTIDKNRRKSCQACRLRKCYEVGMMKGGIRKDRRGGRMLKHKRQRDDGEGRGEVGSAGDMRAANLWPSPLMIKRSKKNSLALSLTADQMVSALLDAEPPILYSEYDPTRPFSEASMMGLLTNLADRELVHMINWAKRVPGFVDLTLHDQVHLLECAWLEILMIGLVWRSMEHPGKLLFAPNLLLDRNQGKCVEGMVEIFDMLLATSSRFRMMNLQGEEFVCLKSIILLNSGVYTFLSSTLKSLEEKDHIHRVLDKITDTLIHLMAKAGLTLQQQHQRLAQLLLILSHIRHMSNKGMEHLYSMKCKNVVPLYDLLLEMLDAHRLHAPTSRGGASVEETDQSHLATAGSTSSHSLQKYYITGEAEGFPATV
Method: (§2) In vitro binding assays were performed by the company Cerep for α-2 adrenergic receptor (agonist, ref. 3443), estrogen receptor-α(ERα, agonist, ref. 0484) and PPARγ (agonist, ref. 0641). Similarly, Cerep carried out the cellular assays of 2C-1 adrenergic receptor (α1B, agonist effect, ref. 1901) and ERα (antagonistic effect, ref. 3495). […] The effect of chemicals were initially evaluated at 50 μM, and Ki values were further determined for chemicals with more than 40% activity in initial assessment. As explained above, R package ‘drc’ ([Ritz and Streibig, 2005]) was utilized to calculate IC50 values using a two-parametric log-logistic function with 0% as minimum and 100% as maximum. Ki values were generated from the IC50 values using Cheng–Prusoff equation.

ADRA1B = molecular target: T2, ADRA1B (Homo sapiens, UniProt P35368); assay: cell-based; design: Cerep cellular alpha1B adrenergic receptor agonist effect assay (ref. 1901); settings: read-out: Agonist
T2 sequence (P35368 1-520): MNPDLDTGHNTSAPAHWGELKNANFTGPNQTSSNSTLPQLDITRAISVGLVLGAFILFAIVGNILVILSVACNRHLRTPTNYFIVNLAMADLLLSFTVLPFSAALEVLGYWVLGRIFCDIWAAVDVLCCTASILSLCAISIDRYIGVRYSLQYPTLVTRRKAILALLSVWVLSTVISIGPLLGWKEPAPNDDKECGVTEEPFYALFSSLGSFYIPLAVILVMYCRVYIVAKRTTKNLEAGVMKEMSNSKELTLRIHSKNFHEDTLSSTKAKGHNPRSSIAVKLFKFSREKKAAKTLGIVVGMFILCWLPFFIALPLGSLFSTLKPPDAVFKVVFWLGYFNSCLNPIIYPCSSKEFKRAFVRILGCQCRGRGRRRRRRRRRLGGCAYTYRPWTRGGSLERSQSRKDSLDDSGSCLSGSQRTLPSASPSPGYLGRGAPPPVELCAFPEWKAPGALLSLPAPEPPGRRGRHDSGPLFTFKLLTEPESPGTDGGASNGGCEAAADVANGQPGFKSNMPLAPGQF
Method: as §2

[2] = molecular target: T3, ADRA2C (α-2 adrenergic receptor) (Homo sapiens, UniProt P18825); assay: biochemical; design: Cerep in vitro receptor binding assay (agonist ligand), per cent inhibition at 50 uM and Ki by Cheng-Prusoff; settings: read-out: % inhibition
T3 sequence (P18825 1-462): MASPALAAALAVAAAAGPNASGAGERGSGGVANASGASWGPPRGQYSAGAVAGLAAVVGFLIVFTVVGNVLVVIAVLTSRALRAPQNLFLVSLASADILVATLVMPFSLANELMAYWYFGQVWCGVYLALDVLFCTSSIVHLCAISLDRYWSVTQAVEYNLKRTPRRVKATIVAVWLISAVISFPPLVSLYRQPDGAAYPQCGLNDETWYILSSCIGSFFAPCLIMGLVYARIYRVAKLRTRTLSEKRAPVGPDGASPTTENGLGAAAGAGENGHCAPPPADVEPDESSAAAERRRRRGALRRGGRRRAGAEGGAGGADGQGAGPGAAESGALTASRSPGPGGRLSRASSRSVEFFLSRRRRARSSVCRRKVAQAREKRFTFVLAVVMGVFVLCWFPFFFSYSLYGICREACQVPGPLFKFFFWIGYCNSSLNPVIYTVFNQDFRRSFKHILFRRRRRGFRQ
Method: as §2

[3] = molecular target: T4, PPARγ (peroxisome proliferator-activated receptor subtype-γ) (Homo sapiens, UniProt P37231); assay: biochemical; design: Cerep in vitro receptor binding assay (agonist ligand), per cent inhibition at 50 uM and Ki by Cheng-Prusoff; settings: read-out: % inhibition
T4 construct: gene PPARG
T4 sequence (P37231 1-505): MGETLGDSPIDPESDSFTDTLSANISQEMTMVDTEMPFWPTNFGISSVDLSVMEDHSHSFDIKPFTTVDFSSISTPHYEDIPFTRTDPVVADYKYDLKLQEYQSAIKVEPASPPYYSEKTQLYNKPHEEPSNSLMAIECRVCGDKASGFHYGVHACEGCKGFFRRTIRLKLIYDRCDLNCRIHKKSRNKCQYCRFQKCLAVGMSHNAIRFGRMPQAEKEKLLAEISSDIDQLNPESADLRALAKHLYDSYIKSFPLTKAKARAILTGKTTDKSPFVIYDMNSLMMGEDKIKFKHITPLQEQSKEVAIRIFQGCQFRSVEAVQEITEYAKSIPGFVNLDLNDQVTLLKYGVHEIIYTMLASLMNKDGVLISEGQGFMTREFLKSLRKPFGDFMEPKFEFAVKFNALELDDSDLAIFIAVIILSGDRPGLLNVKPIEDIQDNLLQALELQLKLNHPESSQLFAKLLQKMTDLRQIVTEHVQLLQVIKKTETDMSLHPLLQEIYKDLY
Method: as §2

[4] = molecular target: T1, estrogen receptor-α (ERα); assay: biochemical; design: Cerep in vitro receptor binding assay (agonist ligand), per cent inhibition at 50 uM and Ki by Cheng-Prusoff; settings: read-out: % inhibition
[5] = molecular target: T5, estrogen receptor-α (ERα) (Homo sapiens, UniProt P03372); assay: in vitro binding assay (Cerep, agonist, ref. […]), Ki from IC50 by Cheng-Prusoff; authors call it ambiguous
T5 construct: gene ESR1

[6] = molecular target: T4, PPARγ (peroxisome proliferator-activated receptor subtype-γ); assay: in vitro binding assay (Cerep, agonist, ref. […]), Ki from IC50 by Cheng-Prusoff

SMILES: Clc1ccc(CCC(Cn2ccnc2)Sc2c(Cl)cccc2Cl)cc1 (stereo not shown) [Butoconazole]
- IC50 (HL60): 3.9 µM
- IC50 (MCF7): 23 µM

SMILES: COc1cc(C(=O)OCCCN2CCCN(CCCOC(=O)c3cc(OC)c(OC)c(OC)c3)CC2)cc(OC)c1OC [Dilazep]
- inhibition at 50 µM [1]: 26.3%

SMILES: COc1cc([C@@H]2c3cc4c(cc3[C@H](O)[C@H]3COC(=O)[C@H]23)OCO4)cc(OC)c1OC [Podophyllotoxin]
- activity at 50 µM (ADRA1B): < 20%
- inhibition at 50 µM [2]: < 20%

SMILES: CCOC(=O)C1=C(C)NC(C)=C(C(=O)OC)C1c1cccc([N+](=O)[O-])c1 (stereo not shown) [nitrendipine]
- inhibition at 50 µM [4]: 49%
- Ki [5]: ~46 µM

SMILES: CCCOc1ccccc1-c1nc2nn[nH]c2c(=O)[nH]1 [zaprinast]
- Ki [6]: 14 µM
- inhibition at 50 µM [3]: 57%

Now from value to compound:

- IC50 (HL60): > 50 µM
- IC50 (MCF7): > 50 µM
SMILES: CC(=O)Oc1cc(C(C)C)c(OCCN(C)C)cc1C [Moxisylyte]

- inhibition at 50 µM [3]: < 20%
SMILES: COC(=O)C1=CO[C@@H](C)[C@H]2CN3CCc4c([nH]c5ccccc45)[C@@H]3C[C@H]12 [Raubasine]

- activity at 50 µM (ADRA1B): < 20%
- inhibition at 50 µM [2]: < 20%
SMILES: C=CC(N)CCC(=O)O (stereo not shown) [Vigabatrin]

- activity at 50 µM (ADRA1B): < 20%
- inhibition at 50 µM [2]: 59%
SMILES: CCCCC(CC)CN1CN(CC(CC)CCCC)CC(C)(N)C1 (stereo not shown) [hexetidine]
